Measured values taken from patent US11739074B2, “Ras inhibitors” (Revolution Medicines, Inc., priority 2019, dated 2023).

Legend:
KRAS Q61H = KRAS Q61H (Homo sapiens, UniProt P01116+P62937, Q61H); assay: Ras-Raf disruption/FRET/MOA assay, KRAS Q61H; type: biochemical; settings: KRAS Q61H; read-out: KRAS Q61H FRET data IC50
Text: (§1) Disruption of B-Raf Ras-Binding Domain (BRAF^RBD) Interaction with K-Ras by Compounds of the Invention (Also Called a FRET Assay or an MOA Assay)
(§2) Note—The following protocol describes a procedure for monitoring disruption of K-Ras G12C (GMP-PNP) binding to BRAF^RBD by a compound of the invention. This protocol may also be executed substituting other Ras proteins or nucleotides, such as K-Ras G12D and K-Ras G13D.
(§3) The purpose of this biochemical assay was to measure the ability of test compounds to facilitate ternary complex formation between a nucleotide-loaded K-Ras isoform and Cyclophilin A; the resulting ternary complex disrupts binding to a BRAF^RBD construct, inhibiting K-Ras signaling through a RAF effector.
(§4) In assay buffer containing 25 mM HEPES pH 7.3, 0.002% Tween20, 0.1% BSA, 100 mM NaCl and 5 mM MgCl2, tagless Cyclophilin A, His6-K-Ras-GMPPNP, and GST-BRAF^RBD were combined in a 384-well assay plate at final concentrations of 25 μM, 12.5 nM, and 50 nM, respectively. Compound was present in plate wells as a 10-point 3-fold dilution series starting at a final concentration of 30 μM. After incubation at 25° C. for 3 hours, a mixture of anti-His Eu-W1024 and anti-GST allophycocyanin was then added to assay sample wells at final concentrations of 10 nM and 50 nM, respectively, and the reaction incubated for an additional 1.5 hours. […] Compounds that facilitate disruption of a K-Ras:RAF complex were identified as those eliciting a decrease in the TR-FRET ratio relative to DMSO control wells.

NCI-H358 (K-Ras G12C) = assay: CellTiter-Glo cell viability assay, H358; type: cell-based; settings: Homo sapiens, NCI-H358, 120 h, NCI-H358, K-Ras G12C, 5-day treatment; read-out: H358 Cell Viability IC50
Summary of the method: (§5)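 Luminescence from CellTiter-Glo serves as the viability read-out after cells are treated with compound for 5 days. Each well's signal is divided by the DMSO average and multiplied by 100, and curves are fitted by four-parameter logistic regression.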

NRAS Q61K = biological target: T1, NRAS Q61K (Homo sapiens, UniProt P01111+P62937, Q61K); assay: Ras-Raf disruption/FRET/MOA assay, NRAS Q61K; type: biochemical; settings: NRAS Q61K; read-out: NRAS Q61K FRET data IC50
T1 construct: His6
Text: as §1, §2, §3, §4

KRAS G12S = KRAS G12S (Homo sapiens, UniProt P01116+P62937, G12S); assay: Ras-Raf disruption/FRET/MOA assay, KRAS G12S; type: biochemical; settings: disruption of BRAF RBD binding, with Cyclophilin A; read-out: KRAS G12S FRET IC50
Summary of the method: (§6)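 His6-K-Ras-GMPPNP (12.5 nM) was incubated with GST-BRAF RBD (50 nM), tagless cyclophilin A (25 µM) and compound (10-point 3-fold series from 30 µM) in HEPES pH 7.3 buffer for 3 h at 25 °C. Anti-His Eu/anti-GST APC were then added for 1.5 h; disruption was read as a drop in TR-FRET ratio versus DMSO.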

AsPC-1 (K-Ras G12D) [1] = assay: CellTiter-Glo cell viability assay, AsPC-1; type: cell-based; settings: Homo sapiens, ASPC1, 120 h, AsPC-1, K-Ras G12D, 5-day treatment; read-out: AsPC-1 Cell Viability IC50
Summary of the method: as §5

KRAS G13D = KRAS G13D (Homo sapiens, UniProt P01116+P62937, G13D); assay: Ras-Raf disruption/FRET/MOA assay, KRAS G13D; type: biochemical; settings: disruption of BRAF RBD binding, with Cyclophilin A; read-out: KRAS G13D FRET IC50
Summary of the method: as §6

KRAS WT = KRAS WT (Homo sapiens, UniProt P01116+P62937); assay: Ras-Raf disruption/FRET/MOA assay, KRAS WT; type: biochemical; settings: disruption of BRAF RBD binding, with Cyclophilin A; read-out: KRAS WT FRET IC50
Summary of the method: as §6

KRAS G12V = KRAS G12V (Homo sapiens, UniProt P01116+P62937, G12V); assay: Ras-Raf disruption/FRET/MOA assay, KRAS G12V; type: biochemical; settings: disruption of BRAF RBD binding, with Cyclophilin A; read-out: KRAS G12V FRET IC50
Summary of the method: as §6

AsPC-1 (K-Ras G12D) [2] = assay: Potency assay: pERK in AsPC-1 cells; type: cell-based; settings: Homo sapiens, ASPC1; AsPC-1 cells, K-Ras G12D; read-out: pERK EC50 (AsPC-1 KRAS G12D)
NRAS G12C = biological target: T2, NRAS G12C (Homo sapiens, UniProt P01111+P62937, G12C); assay: Ras-Raf disruption/FRET/MOA assay, NRAS G12C; type: biochemical; settings: NRAS G12C; read-out: NRAS G12C FRET data IC50
T2 construct: His6
Summary of the method: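 Disruption of Ras:RAF binding was read as a drop in TR-FRET ratio versus DMSO controls. The buffer was 25 mM HEPES pH 7.3, 0.002% Tween20, 0.1% BSA, 100 mM NaCl and 5 mM MgCl2. Compounds were tested as a 10-point 3-fold dilution series from 30 μM. Detection used 10 nM anti-His Eu-W1024 and 50 nM anti-GST allophycocyanin.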

NRAS WT = biological target: T3, NRAS WT (Homo sapiens, UniProt P01111+P62937); assay: Ras-Raf disruption/FRET/MOA assay, NRAS WT; type: biochemical; settings: NRAS WT; read-out: NRAS WT FRET data IC50
T3 construct: His6
Text: as §1, §2, §3, §4

NRAS Q61R = biological target: T4, NRAS Q61R (Homo sapiens, UniProt P01111+P62937, Q61R); assay: Ras-Raf disruption/FRET/MOA assay, NRAS Q61R; type: biochemical; settings: NRAS Q61R; read-out: NRAS Q61R FRET data IC50
T4 construct: His6
Text: as §1, §2, §3, §4

KRAS G12D = KRAS G12D (Homo sapiens, UniProt P01116+P62937, G12D); assay: Ras-Raf disruption/FRET/MOA assay, KRAS G12D; type: biochemical; settings: disruption of BRAF RBD binding, with Cyclophilin A; read-out: KRAS G12D FRET IC50
Summary of the method: as §6

KRAS G13C = KRAS G13C (Homo sapiens, UniProt P01116+P62937, G13C); assay: Ras-Raf disruption/FRET/MOA assay, KRAS G13C; type: biochemical; settings: disruption of BRAF RBD binding, with Cyclophilin A; read-out: KRAS G13C FRET IC50
Summary of the method: as §6

KRAS G12C = KRAS G12C (Homo sapiens, UniProt P01116+P62937, G12C); assay: Ras-Raf disruption/FRET/MOA assay, KRAS G12C; type: biochemical; settings: disruption of BRAF RBD binding, with Cyclophilin A; read-out: KRAS G12C FRET IC50
Summary of the method: as §6

Sequence of KRAS G12D (P01116 1-169 isoform P01116-2 G12D limits assumed): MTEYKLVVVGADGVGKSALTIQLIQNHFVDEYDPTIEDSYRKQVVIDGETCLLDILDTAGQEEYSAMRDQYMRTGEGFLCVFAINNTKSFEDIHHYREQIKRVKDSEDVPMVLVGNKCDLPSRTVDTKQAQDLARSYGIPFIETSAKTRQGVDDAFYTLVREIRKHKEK
Sequence of KRAS G12D (P62937 whole entry): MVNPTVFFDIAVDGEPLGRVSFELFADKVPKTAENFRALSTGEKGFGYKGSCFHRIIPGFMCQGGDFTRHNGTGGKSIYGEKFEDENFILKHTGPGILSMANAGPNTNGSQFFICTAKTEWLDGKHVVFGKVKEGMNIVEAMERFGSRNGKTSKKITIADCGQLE
T2 sequence (P01111 whole entry G12C): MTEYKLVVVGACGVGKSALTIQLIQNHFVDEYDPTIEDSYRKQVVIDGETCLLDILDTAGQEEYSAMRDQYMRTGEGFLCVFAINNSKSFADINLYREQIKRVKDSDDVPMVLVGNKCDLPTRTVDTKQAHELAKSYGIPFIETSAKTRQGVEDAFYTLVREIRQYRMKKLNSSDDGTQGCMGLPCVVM
T2 sequence (P62937 whole entry): as the sequence (P62937 whole entry) above
Sequence of KRAS G13D (P01116 1-169 isoform P01116-2 G13D limits assumed): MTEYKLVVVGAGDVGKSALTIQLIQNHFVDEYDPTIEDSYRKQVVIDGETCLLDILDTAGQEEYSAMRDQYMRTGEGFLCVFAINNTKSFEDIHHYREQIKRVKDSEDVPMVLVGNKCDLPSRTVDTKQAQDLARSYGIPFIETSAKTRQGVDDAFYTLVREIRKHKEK
Sequence of KRAS G13D (P62937 whole entry): as the sequence (P62937 whole entry) above
Sequence of KRAS Q61H (P01116 1-169 isoform P01116-2 Q61H limits assumed): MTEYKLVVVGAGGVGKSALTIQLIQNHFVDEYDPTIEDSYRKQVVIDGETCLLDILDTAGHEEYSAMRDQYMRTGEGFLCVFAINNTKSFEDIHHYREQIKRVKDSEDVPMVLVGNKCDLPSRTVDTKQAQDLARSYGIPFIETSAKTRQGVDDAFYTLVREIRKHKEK
Sequence of KRAS Q61H (P62937 whole entry, the tested form may be a part): as the sequence (P62937 whole entry) above
Sequence of KRAS G12V (P01116 1-169 isoform P01116-2 G12V limits assumed): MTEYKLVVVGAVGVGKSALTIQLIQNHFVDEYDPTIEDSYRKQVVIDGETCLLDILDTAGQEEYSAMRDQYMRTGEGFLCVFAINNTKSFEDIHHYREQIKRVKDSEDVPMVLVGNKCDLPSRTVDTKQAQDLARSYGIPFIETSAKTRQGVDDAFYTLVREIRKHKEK
Sequence of KRAS G12V (P62937 whole entry): as the sequence (P62937 whole entry) above
Sequence of KRAS G12S (P01116 1-169 isoform P01116-2 G12S limits assumed): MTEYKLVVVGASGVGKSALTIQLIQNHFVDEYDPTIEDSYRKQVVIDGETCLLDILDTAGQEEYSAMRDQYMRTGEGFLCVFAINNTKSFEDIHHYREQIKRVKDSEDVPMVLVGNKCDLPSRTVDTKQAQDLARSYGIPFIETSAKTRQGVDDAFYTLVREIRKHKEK
Sequence of KRAS G12S (P62937 whole entry): as the sequence (P62937 whole entry) above
Sequence of KRAS G12C (P01116 1-169 isoform P01116-2 G12C limits assumed): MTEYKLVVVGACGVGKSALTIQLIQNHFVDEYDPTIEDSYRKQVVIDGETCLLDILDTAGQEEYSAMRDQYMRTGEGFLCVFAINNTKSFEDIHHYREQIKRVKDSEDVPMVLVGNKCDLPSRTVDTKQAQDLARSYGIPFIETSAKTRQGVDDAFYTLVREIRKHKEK
Sequence of KRAS G12C (P62937 whole entry): as the sequence (P62937 whole entry) above
Sequence of KRAS G13C (P01116 1-169 isoform P01116-2 G13C limits assumed): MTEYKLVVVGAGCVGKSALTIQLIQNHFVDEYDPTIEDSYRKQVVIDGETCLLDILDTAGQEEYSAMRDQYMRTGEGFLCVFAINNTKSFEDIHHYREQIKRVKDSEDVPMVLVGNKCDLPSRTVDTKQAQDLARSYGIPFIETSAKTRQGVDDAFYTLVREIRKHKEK
Sequence of KRAS G13C (P62937 whole entry): as the sequence (P62937 whole entry) above
T3 sequence (P01111 whole entry): as the sequence (P01111 whole entry G12C) above, with C12G counted along it
T3 sequence (P62937 whole entry): as the sequence (P62937 whole entry) above
Sequence of KRAS WT (P01116 1-169 isoform P01116-2 limits assumed): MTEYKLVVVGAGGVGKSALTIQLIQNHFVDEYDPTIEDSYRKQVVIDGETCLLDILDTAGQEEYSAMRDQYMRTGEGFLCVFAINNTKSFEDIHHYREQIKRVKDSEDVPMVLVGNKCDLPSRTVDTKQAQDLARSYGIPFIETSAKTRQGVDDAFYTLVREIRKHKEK
Sequence of KRAS WT (P62937 whole entry): as the sequence (P62937 whole entry) above
T4 sequence (P01111 whole entry Q61R): as the sequence (P01111 whole entry G12C) above, with C12G, Q61R counted along it
T4 sequence (P62937 whole entry): as the sequence (P62937 whole entry) above
T1 sequence (P01111 whole entry Q61K): as the sequence (P01111 whole entry G12C) above, with C12G, Q61K counted along it
T1 sequence (P62937 whole entry): as the sequence (P62937 whole entry) above

Compound: CCn1c(-c2cccnc2[C@H](C)OC)c2c3cc(ccc31)-c1cc(O)cc(c1)C[C@H](NC(=O)[C@H](C(C)C)N1CO[C@]3(CCN(C(=O)[C@H]4CN4)C3)C1=O)C(=O)N1CCC[C@H](N1)C(=O)OCC(C)(C)C2 [Compound 231]
- IC50 (KRAS Q61H): < 0.01 µM
- IC50 (NCI-H358 (K-Ras G12C)): < 0.01 µM
- IC50 (NRAS Q61K): 0.01 to 0.1 µM
- IC50 (KRAS G12S): 0.01 to 0.1 µM
- IC50 (AsPC-1 (K-Ras G12D) [1]): 0.1 to 1 µM
- IC50 (KRAS G13D): 0.01 to 0.1 µM
- IC50 (KRAS WT): 0.01 to 0.1 µM
- IC50 (KRAS G12V): 0.01 to 0.1 µM
- EC50 (AsPC-1 (K-Ras G12D) [2]): < 5 µM
- IC50 (NRAS G12C): < 0.01 µM
- IC50 (NRAS WT): 0.01 to 0.1 µM
- IC50 (NRAS Q61R): 0.1 to 1 µM
- IC50 (KRAS G12D): 0.01 to 0.1 µM
- IC50 (KRAS G13C): < 0.01 µM
- IC50 (KRAS G12C): < 0.01 µM

Compound: CCn1c(-c2cccnc2[C@H](C)OC)c2c3cc(ccc31)-c1csc(n1)C[C@H](NC(=O)[C@H](C1CCCC1)N1CC[C@]3(CCN(C(=O)[C@@H]4N[C@@H]4C4CC4)C3)C1=O)C(=O)N1CCC[C@H](N1)C(=O)OCC(C)(C)C2 [Compound 234]
- IC50 (KRAS Q61H): 1 to 10 µM
- IC50 (NCI-H358 (K-Ras G12C)): 0.01 to 0.1 µM
- IC50 (NRAS Q61K): 1 to 10 µM
- IC50 (KRAS G12S): 1 to 10 µM
- IC50 (AsPC-1 (K-Ras G12D) [1]): 0.1 to 1 µM
- IC50 (KRAS G13D): > 10 µM
- IC50 (KRAS WT): 1 to 10 µM
- IC50 (KRAS G12V): 1 to 10 µM
- IC50 (NRAS G12C): 1 to 10 µM
- IC50 (NRAS WT): 1 to 10 µM
- IC50 (NRAS Q61R): 1 to 10 µM
- IC50 (KRAS G12D): 1 to 10 µM
- IC50 (KRAS G13C): 1 to 10 µM
- IC50 (KRAS G12C): 0.1 to 1 µM

Compound: CCn1c(-c2cccnc2[C@H](C)OC)c2c3cc(ccc31)-c1csc(n1)C[C@H](NC(=O)[C@H](C(C)C)N(C)C(=O)N1C3CCC1CN(C(=O)[C@H]1CN1)C3)C(=O)N1CCC[C@H](N1)C(=O)OCC(C)(C)C2 [Compound 303]
- IC50 (KRAS Q61H): 0.01 to 0.1 µM
- IC50 (NCI-H358 (K-Ras G12C)): 0.01 to 0.1 µM
- IC50 (NRAS Q61K): 0.1 to 1 µM
- IC50 (KRAS G12S): 0.1 to 1 µM
- IC50 (AsPC-1 (K-Ras G12D) [1]): 0.1 to 1 µM
- IC50 (KRAS G13D): 0.1 to 1 µM
- IC50 (KRAS WT): 0.1 to 1 µM
- IC50 (KRAS G12V): 0.1 to 1 µM
- EC50 (AsPC-1 (K-Ras G12D) [2]): < 5 µM
- IC50 (NRAS G12C): 0.1 to 1 µM
- IC50 (NRAS WT): 0.1 to 1 µM
- IC50 (NRAS Q61R): 0.1 to 1 µM
- IC50 (KRAS G12D): 0.1 to 1 µM
- IC50 (KRAS G13C): 0.1 to 1 µM
- IC50 (KRAS G12C): 0.1 to 1 µM

Compound: CCn1c(-c2cccnc2[C@H](C)OC)c2c3cc(ccc31)-c1cc(cc(C(F)F)c1)C[C@H](NC(=O)[C@H](C1CCCC1)N1CC[C@]3(CCN(C(=O)[C@@H]4N[C@@H]4C4CC4)C3)C1=O)C(=O)N1CCC[C@H](N1)C(=O)OCC(C)(C)C2 [Compound 318]
- IC50 (KRAS Q61H): 0.1 to 1 µM
- IC50 (NCI-H358 (K-Ras G12C)): 0.1 to 1 µM
- IC50 (NRAS Q61K): 1 to 10 µM
- IC50 (KRAS G12S): 1 to 10 µM
- IC50 (AsPC-1 (K-Ras G12D) [1]): 0.1 to 1 µM
- IC50 (KRAS G13D): 1 to 10 µM
- IC50 (KRAS WT): 0.1 to 1 µM
- IC50 (KRAS G12V): 1 to 10 µM
- IC50 (NRAS G12C): 1 to 10 µM
- IC50 (NRAS WT): 1 to 10 µM
- IC50 (NRAS Q61R): 1 to 10 µM
- IC50 (KRAS G12D): 1 to 10 µM
- IC50 (KRAS G13C): 0.1 to 1 µM
- IC50 (KRAS G12C): 0.1 to 1 µM
